Results as given in patent US10676431B2, “Phenylpyrrolidinone formyl peptide 2 receptor agonists” (BRISTOL-MYERS SQUIBB COMPANY, priority 2018, dated 2020).

Legend:
human FPR2 = human FPR2 (Homo sapiens (Human), UniProt P25090); test: FPR2 cyclic adenosine monophosphate (cAMP) assay; format: cell-based; details: CHO cells overexpressing human FPR2; forskolin 5 μM, IBMX 200 μM; inhibition of cAMP production, HTRF; read-out: hFPR2 cAMP2 EC50
Outline: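 CHO cells overexpressing human FPR2 (2,000/well) or FPR1 (4,000/well) incubated 30 min at room temperature with compound (0.020 nM–100 μM, 1% DMSO), IBMX 200 μM and forskolin (5 μM for FPR2, 10 μM for FPR1). Intracellular cAMP read by HTRF against a cAMP standard curve; inhibition of cAMP production fitted to a 4-parameter logistic.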

human FPR1 = human FPR1 (Homo sapiens (Human), UniProt P21462); test: FPR1 cyclic adenosine monophosphate (cAMP) assay; format: cell-based; details: CHO cells overexpressing human FPR1; forskolin 10 μM, IBMX 200 μM; inhibition of cAMP production, HTRF; read-out: hFPR1 cAMP EC50
Chain of human FPR1 (P21462 whole entry): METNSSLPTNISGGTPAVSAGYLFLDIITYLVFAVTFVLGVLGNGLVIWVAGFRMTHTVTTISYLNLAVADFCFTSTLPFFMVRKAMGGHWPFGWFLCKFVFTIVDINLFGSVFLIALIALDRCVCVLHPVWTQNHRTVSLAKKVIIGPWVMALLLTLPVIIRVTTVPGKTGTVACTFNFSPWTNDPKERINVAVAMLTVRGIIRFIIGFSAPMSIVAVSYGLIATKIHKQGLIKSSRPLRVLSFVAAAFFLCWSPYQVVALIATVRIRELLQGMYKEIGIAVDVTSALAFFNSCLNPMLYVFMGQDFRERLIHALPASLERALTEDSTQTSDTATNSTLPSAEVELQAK
Outline: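 CHO cells overexpressing human FPR1 (4,000 per well) were incubated 30 min at room temperature with compound (0.020 nM–100 μM, 1% DMSO), 10 μM forskolin and 200 μM IBMX. Intracellular cAMP was read by HTRF. Inhibition of cAMP production was fitted to a 4-parameter logistic equation.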

Chain of human FPR2 (P25090 whole entry): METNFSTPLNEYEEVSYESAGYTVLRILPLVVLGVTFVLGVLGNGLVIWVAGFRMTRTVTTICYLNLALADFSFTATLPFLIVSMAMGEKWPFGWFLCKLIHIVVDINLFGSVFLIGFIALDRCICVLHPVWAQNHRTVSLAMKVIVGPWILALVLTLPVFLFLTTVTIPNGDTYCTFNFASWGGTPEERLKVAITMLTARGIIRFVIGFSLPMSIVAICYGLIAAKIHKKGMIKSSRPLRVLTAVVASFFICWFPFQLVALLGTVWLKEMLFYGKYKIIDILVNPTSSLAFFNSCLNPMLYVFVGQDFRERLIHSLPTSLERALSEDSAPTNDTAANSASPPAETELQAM

Compound	EC50 (human FPR2) [µM]	EC50 (human FPR1) [µM]
CCP(=O)(CC)c1ncccc1-c1ccc(N2CC[C@@H](NC(=O)Nc3ccc(C(F)(F)F)cc3F)C2=O)c(F)c1F [Example 100]	0.002	0.092
COc1ncccc1-c1ccc(N2CC[C@@H](NC(=O)Nc3ccc(Cl)cc3F)C2=O)c(F)c1F [Example 118]	0.017	0.32
COC[C@@H]1C[C@@H](NC(=O)Nc2ccc(C(F)(F)F)cc2F)C(=O)N1c1ccc(-c2ccccc2P(C)(C)=O)c(F)c1F [Example 90]	0.0051	1.4
CC(N)c1cccc(-c2ccc(N3CC[C@@H](NC(=O)Nc4ccc(Cl)cc4)C3=O)c(F)c2F)c1 (some centres unmarked) [Example 12]	0.0025	0.45
COC[C@@H]1C[C@@H](NC(=O)Nc2ccc(Cl)cc2F)C(=O)N1c1ccc(-c2ccccc2P(C)(C)=O)c(F)c1F [Example 30]	0.00022	0.083
COc1ccc(NC(=O)N[C@@H]2CCN(c3ccc(-c4ccccc4P(C)(C)=O)c(F)c3F)C2=O)cc1 [Example 65]	0.0012	2.6
CP(C)(=O)c1ccccc1-c1ccc(N2CC[C@@H](NC(=O)Nc3ccc(Cl)cc3F)C2=O)c(F)c1Cl [Example 81]	0.00052	0.027
CC(C)c1cc(-c2ccccc2P(C)(C)=O)ccc1N1CC[C@@H](NC(=O)Nc2ccc(C(F)(F)F)cc2F)C1=O [Example 60]	0.0037	0.12
CP(C)(=O)c1ccccc1-c1ccc(N2C(=O)[C@H](NC(=O)Nc3ccc(C(F)(F)F)cc3F)C[C@H]2CN2CCOCC2)c(F)c1F [Example 131]	0.0012	0.061
CP(C)(=O)c1ccccc1-c1ccc(N2CC[C@@H](NC(=O)Nc3ccc(Cl)cc3F)C2=O)c(C2CC2)c1F [Example 117]	0.013	0.084
O=C(Nc1ccc(C(F)(F)F)cc1F)N[C@@H]1CCN(c2ccc(-c3cccc4c3S(=O)(=O)NC4)c(F)c2F)C1=O [Example 97]	0.0072	0.11
CS(=O)(=O)c1ccccc1-c1ccc(N2C(=O)[C@H](NC(=O)Nc3ccc(Cl)cc3F)C[C@H]2CO)c(F)c1F [Example 42]	0.001	0.22
CS(=O)(=O)c1ccccc1-c1ccc(N2CC[C@@H](NC(=O)Nc3ccc(Cl)cc3F)C2=O)c(F)c1F [Example 7]	0.0021	0.14
CP(C)(=O)c1ccccc1-c1ccc(N2CC[C@@H](NC(=O)Nc3ccc(Cl)cc3F)C2=O)c(Cl)c1Cl [Example 78]	0.0012	0.045
CP(C)(=O)c1ccccc1-c1ccc(N2CC[C@@H](NC(=O)Nc3ccc(Cl)cn3)C2=O)c(F)c1F [Example 49]	0.0056	3.4
CS(=N)(=O)c1ccccc1-c1ccc(N2CC[C@@H](NC(=O)Nc3ccc(Cl)cc3F)C2=O)c(F)c1F (some centres unmarked) [Example 59]	0.0017	0.14

Compound	EC50 (human FPR2) [µM]	EC50 (human FPR1) [µM]
CS(=O)(=O)Nc1ccccc1-c1ccc(N2CC[C@@H](NC(=O)Nc3cnc(C(F)(F)F)cn3)C2=O)c(F)c1F [Example 18]	0.02	2.1
CP(C)(=O)c1c(F)cccc1-c1ccc(N2CC[C@@H](NC(=O)Nc3ccc(Cl)cc3F)C2=O)c(F)c1Cl [Example 85]	0.00062	0.0051
O=C(Nc1ccc(Cl)cc1F)N[C@@H]1CCN(c2ccc(-c3ccccc3F)c(F)c2F)C1=O [Example 21]	0.031	0.39
CP(C)(=O)c1ccccc1-c1ccc(N2CC(CO)[C@@H](NC(=O)Nc3ccc(Cl)cc3F)C2=O)c(F)c1F (some centres unmarked) [Example 126]	0.012	> 10
CC1C[C@@H](NC(=O)Nc2ccc(Cl)cc2F)C(=O)N1c1ccc(-c2ccccc2P(C)(C)=O)c(F)c1F (stereo in doubt) [Example 109, 1-(4-Chloro-2-fluorophenyl)-3-(1-(2′-(dimethylphosphoryl)-2,3-difluoro-[1,1′-biphenyl]-4-yl)-5-methyl-2-oxopyrrolidin-3-yl)urea]	0.00044	0.39
CP(C)(=O)c1ncccc1-c1ccc(N2C(=O)[C@H](NC(=O)Nc3ccc(C(F)(F)F)cc3F)C[C@H]2CO)c(F)c1F [Example 123]	0.0015	0.24
CS(=O)(=O)c1ccccc1-c1cc(F)c(N2CC[C@@H](NC(=O)Nc3ccc(Cl)cc3F)C2=O)c(F)c1 [Example 52]	0.01	1.1
CP(C)(=O)c1ccccc1-c1ccc(N2CC[C@@H](NC(=O)Nc3ccc(C(F)(F)F)cc3F)C2=O)c(C(F)(F)F)c1F [Example 92]	0.0083	0.22
CC(N)c1cccc(-c2ccc(N3CC[C@@H](NC(=O)Nc4ccc(Cl)cc4F)C3=O)c(F)c2F)c1 (some centres unmarked) [Example 50]	0.014	0.64
COc1c(N2CC[C@@H](NC(=O)Nc3ccc(Cl)cc3F)C2=O)ccc(-c2ccccc2NS(C)(=O)=O)c1F [Example 36]	0.0047	0.069
CC(C)c1cc(-c2ccccc2NS(C)(=O)=O)ccc1N1CC[C@@H](NC(=O)Nc2ccc(Cl)cc2F)C1=O [Example 27]	0.0005	0.11
COc1ccc(NC(=O)N[C@@H]2CCN(c3ccc(-c4ccccc4P(C)(C)=O)c(F)c3F)C2=O)c(F)c1 [Example 71]	0.0021	1.28
CP(C)(=O)c1ccccc1-c1ccc(N2CC(CO)[C@@H](NC(=O)Nc3ccc(Cl)cc3F)C2=O)c(F)c1F (some centres unmarked) [Example 125]	0.00099	0.18
COc1c(-c2ccccc2NS(C)(=O)=O)ccc(N2CC[C@@H](NC(=O)Nc3ccc(Cl)cc3F)C2=O)c1F [Example 34]	0.0041	0.026
CP(C)(=O)c1ccccc1-c1ccc(N2CC[C@@H](NC(=O)Nc3ccc(C(F)(F)F)cc3F)C2=O)c(Cl)c1F [Example 98]	0.0029	0.27
